Laboratory results taken from article PMC8433221 (Scientific Reports, 2021).

Target: T1, PptAb-ACP complex (S2105A ACP) (Mycobacteroides abscessus, UniProt B1MD73)
T1 construct: gene MAB_3117c

CCNC(=N)NC(=O)Nc1c(CC)cccc1CC [compound 1, 1-[(2,6-diethylphenyl)-3-N-ethylcarbamimodoyl]urea]
X-ray crystallography, 2.5 Å, co-crystallisation: complex formed between PptAb and its cognate ACP domain in the presence of CoA
